# Assay results: patent US20230406847A1, “LIGANDS OF PROSTATE SPECIFIC MEMBRANE ANTIGEN (PSMA) CONTAINING HETEROAROMATIC LINKER BUILDING BLOCKS” (ABX ADVANCED B[…] GMBH, priority 2020, published 2023)
# Test system: human PSMA+ LNCaP cells
# Assay: Internalization of radiolabelled compounds in LNCaP cells
# Format: cell-based
# Description: Gallium labeling was carried out using 90 μL HEPES in water (580 mg/mL; ultrapure-grade, Merck, Darmstadt, Germany) mixed with 40 μL of [^68Ga]GaCl3. The pH of the mixture was adjusted to 3.8 to 4.1 with NaOH (30%; ultrapure-grade, Merck, Darmstadt, Germany). Subsequently 1.0 nmol of a synthesized compound of Example 3 to 10 was added and incubated at 98 ° C. for 10 to 15 minutes. For the competitive cell assay, the precursor amount was diminished to 0.5 nmol.
# Lutetium labelling was carried out using 115 μL of sodium acetate buffer (400 mM, pH mixed with 10 to 20 MBq [177Lu]LuCl3. Subsequently, 1.0 nmol of a synthesized compound of Example 3 to 10 was added and incubated at 98 ° C. for 20 to 25 minutes.
# Cell binding studies were performed using human PSMA+ LNCaP cells (ATCC CRL-1740) cultured in RPMI 1640 medium supplemented with 10% fetal bovine serum (Sera plus, PAN Biotech) and 2 mmol/l stable glutamine (PAN Biotech). Cells were grown at 37° C. in an incubator with humidified air and 5% CO2. Trypsin/EDTA 0.5%/0.02% in PBS (PAN Biotech) was used to harvest cells.
# 1×10^5 LNCaP cells were seeded in poly-L-lysine coated 24-well-plates for 24 h at 37° C. humidified air with 5% CO2. After removing the medium, cells were incubated with radiolabelled compounds of Example 11 (30 nM) for 45 minutes at 37° C. and at 4° C. respectively. For determination of specific cell uptake, cells were blocked with PMPA (Tocris) at a concentration of 500 μM. The cells were washed three times with 1 ml ice-cold PBS, twice with 500 μl glycine-HCl (50mM; pH 2.8) for 5 min at rt to remove the surface-bound radioactivity and with 1 ml ice-cold PBS. Subsequent the cells were lysed with 0.5 ml 0.3M NaOH. The internalized and the surface-bound fractions were measured in a gammacounter.
# [1] = radiolabelled compounds (30 nM), 45 minutes, 37° C. and 4° C., LNCaP cells, specific uptake by blocking with PMPA 500 μM
Structure (SMILES),internalisation rate (%) [1],"internalisation rate (%) (0.75 h, 0.03 µM)"
Cc1nc(CNC(=O)CN2CCN(CC(=O)O)CCN(CC(=O)O)CCN(CC(=O)O)CC2)sc1C(=O)N[C@@H](Cc1ccc2ccccc2c1)C(=O)NCCCC[C@H](NC(=O)N[C@@H](CCC(=O)O)C(=O)O)C(=O)O [Example ABX271],37.8%,
O=C(O)CC[C@H](NC(=O)N[C@@H](CCCCNC(=O)[C@H](Cc1ccc2ccccc2c1)NC(=O)c1ccc(CNC(=O)CN2CCN(CC(=O)O)CCN(CC(=O)O)CCN(CC(=O)O)CC2)s1)C(=O)O)C(=O)O [Example ABX272],41.4%,
O=C(O)CC[C@H](NC(=O)N[C@@H](CCCCNC(=O)[C@H](Cc1ccc2ccccc2c1)NC(=O)c1cc(CNC(=O)CN2CCN(CC(=O)O)CCN(CC(=O)O)CCN(CC(=O)O)CC2)on1)C(=O)O)C(=O)O [Example ABX288],33.2%,
O=C(O)CC[C@H](NC(=O)N[C@@H](CCCCNC(=O)[C@H](Cc1ccc2ccccc2c1)NC(=O)c1ccc(CNC(=O)CN2CCN(CC(=O)O)CCN(CC(=O)O)CCN(CC(=O)O)CC2)nc1)C(=O)O)C(=O)O [Example ABX289],55.7%,
O=C(O)CC[C@H](NC(=O)N[C@@H](CCCCNC(=O)[C@H](Cc1csc2ccccc12)NC(=O)c1cc(CNC(=O)CN2CCN(CC(=O)O)CCN(CC(=O)O)CCN(CC(=O)O)CC2)on1)C(=O)O)C(=O)O [Example ABX338],40.8%,
O=C(O)CC[C@H](NC(=O)N[C@@H](CCCCNC(=O)[C@H](Cc1ccc2ccccc2c1)NC(=O)c1cc(CNC(=O)[C@H](CCCCNc2ccc([N+](=O)[O-])cc2[N+](=O)[O-])NC(=O)CN2CCN(CC(=O)O)CCN(CC(=O)O)CCN(CC(=O)O)CC2)on1)C(=O)O)C(=O)O [Example ABX339],60.6%,
O=C(O)CC[C@H](NC(=O)N[C@@H](CCCCNC(=O)[C@H](Cc1csc2ccccc12)NC(=O)c1cc(CNC(=O)[C@H](CCCCNc2ccc([N+](=O)[O-])cc2[N+](=O)[O-])NC(=O)CN2CCN(CC(=O)O)CCN(CC(=O)O)CCN(CC(=O)O)CC2)on1)C(=O)O)C(=O)O [Example ABX341],61.3%,
O=C(O)CC[C@H](NC(=O)N[C@@H](CCCCNC(=O)[C@H](Cc1csc2ccccc12)NC(=O)c1cc(CNC(=O)[C@H](CCCCNC(=O)c2ccc(I)cc2)NC(=O)CN2CCN(CC(=O)O)CCN(CC(=O)O)CCN(CC(=O)O)CC2)on1)C(=O)O)C(=O)O [Example ABX346],46.7%,
"O=C(O)CC[C@H](NC(=O)N[C@@H](CCCCNC(=O)[C@H](Cc1ccc2ccccc2c1)NC(=O)[C@H]1CC[C@H](CNC(=O)CN2CCN(CC(=O)O)CCN(CC(=O)O)CCN(CC(=O)O)CC2)CC1)C(=O)O)C(=O)O [PSMA-617, (3S,10S,14S)-3-[(naphthalen-2-yl)methyl]-1,4,12-trioxo-1-[(1R,4S)-4-[[2-[4,7,10-tris(carboxymethyl)-1,4,7,10-etraazacyclododecan-1-yl]acetamido]methyl]cyclo-hexyl]-2,5,11 ,13-tetraazahexadecane-10,14,16-tricarboxylic acid, reference compound]",,31.1%
